Test results as given in PubChem BioAssay AID721 (PCMD, 2007).
Calls of active or inactive are those of the source. The rule behind the calls is not given here.

molecular target: Coagulation factor XI (Homo sapiens) (UniProt P03951); experiment: FXIa inhibitor IC50 values, dose response, biochemical, hits from single-well screen (AID 721); conditions: purified factor XIa enzymatic assay, fluorescence
Sequence (P03951 19-387 limits assumed): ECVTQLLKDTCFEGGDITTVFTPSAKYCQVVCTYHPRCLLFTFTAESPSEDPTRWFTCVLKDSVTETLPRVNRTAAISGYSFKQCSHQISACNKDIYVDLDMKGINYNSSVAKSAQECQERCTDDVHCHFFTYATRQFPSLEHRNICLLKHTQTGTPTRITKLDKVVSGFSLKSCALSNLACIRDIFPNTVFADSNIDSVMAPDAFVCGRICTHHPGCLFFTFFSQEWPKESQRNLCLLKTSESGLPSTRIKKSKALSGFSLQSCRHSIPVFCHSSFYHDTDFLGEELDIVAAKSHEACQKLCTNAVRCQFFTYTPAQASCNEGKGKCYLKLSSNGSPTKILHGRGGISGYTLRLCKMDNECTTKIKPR
Sequence (P03951 388-625 limits assumed): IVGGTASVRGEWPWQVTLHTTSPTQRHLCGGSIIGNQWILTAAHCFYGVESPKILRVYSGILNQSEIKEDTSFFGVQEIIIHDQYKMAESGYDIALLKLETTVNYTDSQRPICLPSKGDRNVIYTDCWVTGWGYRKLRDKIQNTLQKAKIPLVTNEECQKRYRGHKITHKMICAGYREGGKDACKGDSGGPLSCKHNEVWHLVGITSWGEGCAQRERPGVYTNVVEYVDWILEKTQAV

Row | SMILES | IC50
1 | COc1ccc(CC(=O)NCc2ccc3c(c2)OCO3)cc1 | > 50 µM (inactive)
2 | CCCN(CCC)C(C(=O)Nc1cccc(OC)c1)c1ccccc1 (stereo not given) | > 50 µM (inactive)
3 | CCCC(=O)n1nc(-c2ccccc2)nc1SC | > 50 µM (inactive)
4 | Cc1ccc(NC(=O)CCn2cccc2)cc1 | > 50 µM (inactive)
5 | C=CCn1c(=O)c2c(nc(Br)n2Cc2ccccc2Cl)n(C)c1=O | 0.638 µM
6 | COc1ccccc1-n1cnnc1SCC(=O)Nc1nc(C)c(Cl)cc1Cl | 10.2 µM
7 | O=C(CCSc1nnc2ccc3ccccc3n12)Nc1ccc(F)cc1 | > 50 µM (inactive)
8 | COc1ccc(S(=O)(=O)N2CCC(C(=O)N3CCc4ccccc4C3)CC2)cc1Cl | 6.26 µM
9 | CCCC1CCc2c(sc(N)c2C(N)=O)C1 (stereo not given) | > 50 µM (inactive)
10 | CCOc1ccc(S(=O)(=O)NCc2ccc(OC)cc2)c2cccnc12 | > 50 µM (inactive)
11 | COc1cccc(C(=O)N(Cc2ccccc2)Cc2cc3cc4c(cc3[nH]c2=O)OCCO4)c1 | 10.4 µM
12 | Cc1cc(C)n2nc(C(=O)Nc3ccc4c(c3)OCO4)cc2n1 | > 50 µM (inactive)
13 | COCCN=C1Sc2nc3c(C)cccc3cc2CN1Cc1ccco1 | 0.745 µM
14 | COc1ccc(OCC(=O)Nc2cc(-c3nn(C)c(=O)c4ccccc34)ccc2OC)cc1 | > 50 µM (inactive)
15 | O=c1nc(-c2ccccc2)c2cc(Cl)ccc2[nH]1 | > 50 µM (inactive)
16 | O=C(Nc1ccccc1C(=O)N1CCOCC1)c1ccc(F)cc1 | 21.4 µM
17 | CC(C)c1nc2ccc(NC(=O)C3CCCCC3)cc2[nH]1 | > 50 µM (inactive)
18 | CNC(=O)COC(=O)c1[nH]c(C)c(C(C)=O)c1C | > 50 µM (inactive)
19 | Cc1ccc(C(=O)n2nc(-c3cccnc3)nc2N)cc1 | > 50 µM (inactive)
20 | CCc1c(O)nc(SCC(=O)NC(C)(C)C)n(-c2ccccc2)c1=O | > 50 µM (inactive)
21 | COC(=O)c1sc(NC(=O)CC(C)C)c(C(=O)OC)c1C | > 50 µM (inactive)
22 | CCOc1cccc2cc(C(N)=O)c(=NCc3ccccc3)oc12 | > 50 µM (inactive)
23 | CCC1(c2ccccc2)C(=O)N(C)C(=O)N(C)C1=O | > 50 µM (inactive)
24 | Cc1ccc(N(C(=O)c2ccccn2)C2(C(=O)NC3CCCC3)CCCCC2)cc1 | > 50 µM (inactive)
25 | Cc1c(O)ccc(C(=O)CN2C(=O)c3ccccc3C2=O)c1O | > 50 µM (inactive)

Row | SMILES | IC50
26 | COc1cc(OC)c2c(N)c(C#N)c(C(F)(F)C(F)(F)F)nc2c1 | > 50 µM (inactive)
27 | O=C(c1ccc(F)cc1)N1CCN(C(=O)c2cccnc2)CC1 | > 50 µM (inactive)
28 | O=C(Oc1cccc(-n2cnnn2)c1)c1ccco1 | 4.06 µM
29 | CCn1nc(CC(=O)Nc2nnc(CC(=O)N3CCCC3)s2)c2ccccc2c1=O | > 50 µM (inactive)
30 | Cc1cc(NC(=O)COC(=O)c2c(C)nn(Cc3ccccc3)c2C)no1 | > 50 µM (inactive)
31 | O=S(=O)(Nc1cccc2nsnc12)c1ccccc1 | 9.3 µM
32 | N#Cc1ccc(NC(=O)COC(=O)CNC(=O)C2CCCCC2)cc1 | > 50 µM (inactive)
33 | CCCc1nc2ccccc2c(=O)n1-c1ccc(OC)cc1 | > 50 µM (inactive)
34 | CCOC(=O)c1c(C)n(Cc2ccccc2)c2ccc(OCC(O)Cn3nc(C)cc3C)cc12 (stereo not given) | > 50 µM (inactive)
35 | CCOC(=O)c1c(C)nc2c(c1C)c(=O)oc1ccccc12 | > 50 µM (inactive)
36 | O=c1cccc2n1CC1CC2CN(S(=O)(=O)c2ccccc2)C1 (stereo not given) | > 50 µM (inactive)
37 | CN(CCOc1ccccc1)c1ccc(S(=O)(=O)N2CCCCC2)cn1 | > 50 µM (inactive)
38 | O=C(CCCN1C(=O)c2ccccc2C1=O)NCC1CCCO1 (stereo not given) | 14.6 µM
39 | CCOC(=O)N=S(=O)(Oc1ccc([N+](=O)[O-])cc1)c1ccccc1 (stereo not given) | > 50 µM (inactive)
40 | Cc1ccc(C(=O)n2nnc3ccccc32)cc1 | 2.39 µM
41 | COc1ccc(OCCSc2ncn[nH]2)cc1 | > 50 µM (inactive)
42 | O=C(c1cccc2ccccc12)n1nnc2ccccc21 | > 50 µM (inactive)
43 | COc1cc(/C=c2\sc3n(c2=O)CCCN=3)ccc1O | > 50 µM (inactive)
44 | Cc1ccc(NS(=O)(=O)c2ccc(OCC(=O)N3CCOCC3)cc2)cc1 | > 50 µM (inactive)
45 | CCc1ccc(CC2S/C(=C(\C#N)C(C)=O)NC2=O)cc1 (stereo not given) | > 50 µM (inactive)
46 | CCC1CC2CC(NC(C)=O)C1C2 (stereo not given) | 0.588 µM
47 | CCOc1cc(S(=O)(=O)N(Cc2ccccc2)Cc2ccccc2)c(OCC)cc1-n1cnnn1 | > 50 µM (inactive)
48 | N#Cc1cc2c(nc1SCC(=O)Nc1sc3c(c1C#N)CCC3)CCC2 | > 50 µM (inactive)
49 | CNCCCc1ccccc1 | > 50 µM (inactive)
50 | COc1ccc(Cn2nnnc2C(c2ccccc2Cl)N2CCC(C(N)=O)CC2)cc1 (stereo not given) | > 50 µM (inactive)

Row | SMILES | IC50
51 | COC(=O)CSc1nnc(C)n1-c1cccc(OC)c1 | 2.36 µM
52 | CCN(CC)CCNC(=O)C(C)c1nn(C)c(=O)c2ccccc12 (stereo not given) | > 50 µM (inactive)
53 | O=C(Oc1ccc2c(=O)c(Cl)coc2c1)c1cccnc1 | > 50 µM (inactive)
54 | CCOC(=O)c1cc2c(ccn2C)n1CC(=O)N1CCC(C)CC1 | 0.744 µM
55 | COC(=O)C(Cc1c[nH]c2ccccc12)NC(C)=O (stereo not given) | 6.69 µM
56 | Cc1cccc(NC(=O)c2snc3c(=O)[nH]cnc23)c1 | > 50 µM (inactive)
57 | O=C(c1cn(-c2ccccc2)nc1-c1ccncc1)n1nnc2ccccc21 | 0.707 µM
58 | Cc1c(NC(=O)c2cc3ccccc3o2)c(=O)n(-c2ccccc2)n1C | > 50 µM (inactive)
59 | O=S(=O)(Cc1ccccc1)N1CCC(c2nc(-c3cccs3)no2)CC1 | > 50 µM (inactive)
60 | Cn1nnnc1SCC(=O)N(C1CCCCC1)C1CCCCC1 | > 50 µM (inactive)
61 | O=C(NC(C(=O)c1ccccc1)n1c(=O)cc[nH]c1=S)c1ccccc1 (stereo not given) | > 50 µM (inactive)
62 | OCCCn1c(-c2ccccc2)nc(=S)c2c1CCCC2 | > 50 µM (inactive)
63 | O=C(NCc1ccccc1)C1CCCN(S(=O)(=O)c2cccc3nonc23)C1 (stereo not given) | > 50 µM (inactive)
64 | CCn1c(SCC(=O)c2[nH]c(C)c(C(C)=O)c2C)nnc1-c1ccccc1 | 7.44 µM
65 | COc1cc(OC)cc(-c2nnc(SCc3cccc(C(=O)O)c3)o2)c1 | > 50 µM (inactive)
66 | CCc1ccc(NC(=O)Cn2nc(C(F)(F)F)c3c2CCC3)cc1 | > 50 µM (inactive)
67 | CCC(CO)NCc1ccc(OC2CCCC2)cc1 (stereo not given) | > 50 µM (inactive)
68 | Cc1ccccc1C(=O)N=c1sccn1C | > 50 µM (inactive)
69 | Cc1ccc(-c2csc(N3CCC(NS(=O)(=O)c4ccc5c(c4)OCCO5)CC3)n2)cc1 | > 50 µM (inactive)
70 | COc1ccc2c(=O)cc(-c3ccccc3)n(C)c2c1 | > 50 µM (inactive)
71 | COC(=O)c1[nH]c2ccc(Br)cc2c1NC(=O)CN1CCCc2ccccc21 | > 50 µM (inactive)
72 | Cn1c(SCC(=O)NC2CCCCC2)nnc1-c1cccc(N)c1 | > 50 µM (inactive)
73 | Cc1cc(=O)[nH]c(-n2[nH]c(C)cc2=O)n1 | > 50 µM (inactive)
74 | Cc1cnc(C(=O)OCC(=O)NCc2ccccc2)cn1 | > 50 µM (inactive)
75 | O=c1c(-c2cc3ccccc3o2)[n+]([O-])c2ccccc2n1OCc1ccccn1 | > 50 µM (inactive)
